According to patent US6197535A, “Methods for purifying and assaying a conus γ-carboxylase” (University of Utah Research Foundation, priority 1999, dated 2001):

Tested on: Conus γ-glutamyl carboxylase (Conus radiatus venom duct microsomes)
Format: biochemical
Conditions: for Km: read-out: apparent Km

Substance	Km	enhancement of carboxylation of E.Con-G	enhancement of carboxylation of FLEEL	inhibition of carboxylation of -10.Pro-E.Con-G	IC50 (read-out: apparent IC50)
GEEELQENQELIREKSN-NH2 [E.Con-G]	3.4 mM				
GKDRLTQMKRILKQRGNKAR [Pro (-20 to -1)]		~ 25%	40%	is an inhibitor	490 µM
GKDRLTQMKRILKQRGNKAR-GEEELY-NH2 [wild type substrate]	0.04 mM				
